DC50 data for 31 molecules are collected here from US11691972B2, “Compounds for targeted degradation of BRD9” (C4 Therapeutics, Inc., priority 2020, dated 2023).

Read-outs that look alike come from different tables or passages of the source.

For this assay, the target named is T1, BRD9 (Homo sapiens, UniProt Q9H8M2).
T1 sequence (Q9H8M2 1-597): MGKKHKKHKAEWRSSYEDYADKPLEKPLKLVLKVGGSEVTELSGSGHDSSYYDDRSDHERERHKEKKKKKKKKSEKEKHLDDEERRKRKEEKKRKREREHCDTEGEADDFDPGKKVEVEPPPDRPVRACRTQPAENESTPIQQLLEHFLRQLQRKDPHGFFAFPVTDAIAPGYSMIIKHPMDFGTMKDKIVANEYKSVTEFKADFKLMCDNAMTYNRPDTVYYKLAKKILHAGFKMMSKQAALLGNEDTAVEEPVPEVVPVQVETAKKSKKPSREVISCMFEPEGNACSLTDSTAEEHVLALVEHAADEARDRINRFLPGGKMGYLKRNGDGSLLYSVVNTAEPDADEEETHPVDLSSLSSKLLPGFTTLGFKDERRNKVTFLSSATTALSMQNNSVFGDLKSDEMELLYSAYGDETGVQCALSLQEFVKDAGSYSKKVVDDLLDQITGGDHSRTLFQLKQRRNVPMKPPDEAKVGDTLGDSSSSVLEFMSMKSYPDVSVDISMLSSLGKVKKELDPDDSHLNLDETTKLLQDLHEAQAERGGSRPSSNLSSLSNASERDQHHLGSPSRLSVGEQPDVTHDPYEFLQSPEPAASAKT
In words: HiBiT BRD9 degradation assay in 293T.166 (BRD9-HiBiT) cells. Details: endogenously expressing BRD9 with HiBiT fusion tag via CRISPR; host or cells: 293T.166 (BRD9-HiBiT), also expressing LgBiT ectopically. Format: cell-based. Conditions: 293T.166 cells, 2.0 hours, read-out: HiBiT-Degradation 293T.166 BRD9 2.0 hours (DC50). Put shortly: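 Luminescence from the Nano-Glo HiBiT lytic reagent quantified BRD9 loss after compounds (top 10 μM, half-log, 11 points, duplicates) were incubated 2 h at 37° C. with 10,000 293T.166 BRD9-HiBiT/LgBiT cells per well, with controls lacking compound or lacking reagent.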
For orientation: The HiBiT peptide binds its large partner to form an active luciferase.

In general, DC50 refers to the concentration giving 50% degradation. `COc1cc(-c2cn(C)c(=O)c3[nH]ncc23)cc(OC)c1CNc1ccc(CC2CCN(c3ccc(NC4CCC(=O)NC4=O)cc3)CC2)cc1` (stereo not shown) [Compound 205, 3-[4-[4-[[4-[[2,6-dimethoxy-4-(6-methyl-7-oxo-1H-pyrazolo[3,4-c]pyridin-4-yl)phenyl]methylamino]phenyl]methyl]-1-piperidyl]anilino]piperidine-2,6-dione]: for the setting “Table 1, class symbols”, the DC50 was < 100 nM.

Take `COc1cc(-c2cn(C)c(=O)c3[nH]ncc23)cc(OC)c1CN1CCC(N2CCN(c3ccc(NC4CCC(=O)NC4=O)cc3F)CC2)C(F)(F)C1` (stereo not shown) [Compound 182]: the DC50 (Table 1, class symbols) is < 100 nM.

Take `COc1cc(-c2cn(C)c(=O)c3cnccc23)cc(OC)c1CN1CCC(N2CCN(c3ccc(NC4CCC(=O)NC4=O)cc3C(F)(F)F)CC2)C(F)(F)C1` (stereo not shown) [Compound 185]: the DC50 (Table 1, class symbols) is < 100 nM.

Turning to `COc1cc(-c2cn(C)c(=O)c3[nH]ncc23)cc(OC)c1CN1CCc2cc(N3CCC(c4ccc(NC5CCC(=O)NC5=O)cc4)CC3)ccc2C1` (stereo not shown) [Compound 206, 3-[4-[1-[2-[[2,6-dimethoxy-4-(6-methyl-7-oxo-1H-pyrazolo[3,4-c]pyridin-4-yl)phenyl]methyl]-3,4-dihydro-1H-isoquinolin-6-yl]-4-piperidyl]anilino]piperidine-2,6-dione], the DC50 (Table 1, class symbols) is < 100 nM.

In the case of `COc1cc(-c2cn(C)c(=O)c3[nH]ncc23)cc(OC)c1CN1CCc2c(CC3CCN(c4ccc(NC5CCC(=O)NC5=O)cc4F)CC3)cccc2C1` (stereo not shown) [Compound 106], under “Table 1, class symbols”, the DC50 is < 100 nM.

For the molecule `CN(C(=O)N1CCC(c2ccc(NC3CCC(=O)NC3=O)cc2F)CC1)C1CCN(C(=O)c2ccc(-c3cn(C)c(=O)c4ccccc34)cc2OC(F)(F)F)CC1` (stereo not shown) [Compound 139], the DC50 (Table 1, class symbols) was < 100 nM.

With `COc1cc(-c2cn(C)c(=O)c3[nH]ncc23)cc(OC)c1CN1C[C@H]2CC(C(=O)N3CCC(c4ccc(NC5CCC(=O)NC5=O)cc4)CC3)C[C@H]2C1` (stereo partly drawn) [Compound 110, 3-[4-[1-[(3aR,6aS)-2-[[2,6-dimethoxy-4-(6-methyl-7-oxo-1H-pyrazolo[3,4-c]pyridin-4-yl)phenyl]methyl]-3,3a,4,5,6,6a-hexahydro-1H-cyclopenta[c]pyrrole-5-carbonyl]-4-piperidyl]anilino]piperidine-2,6-dione], under “Table 1, class symbols”, the DC50 is < 100 nM.

For the molecule `COc1cc(-c2cn(C)c(=O)c(C)c2C)cc(Cl)c1CN1CCc2c(CC3CCN(c4ccc(NC5CCC(=O)NC5=O)cc4F)CC3)cccc2C1` (single isomer, unassigned) [Compound 249], the DC50 (Table 2, numeric bound) is > 800 nM.

Take `COc1cc(-c2cn(C)c(=O)c(C)c2C)cc(Cl)c1C(=O)N1CCC(CCC2CCN(c3ccc(NC4CCC(=O)NC4=O)cc3F)CC2)CC1` (stereo not shown) [Compound 243]: the DC50 (Table 1, class symbols) was < 100 nM.

On to `COc1cc(-c2cn(C)c(=O)c3[nH]ncc23)cc(OC)c1CN1CCn2c(CN3CCC(c4ccc(NC5CCC(=O)NC5=O)cc4)CC3)ccc2C1` (stereo not shown) [Compound 102], for which the DC50 (Table 1, class symbols) is < 100 nM.

With `COc1cc(-c2cn(C)c(=O)c3[nH]ncc23)cc(Cl)c1C(=O)N1CCC(C2CCN(c3ccc(NC4CCC(=O)NC4=O)nc3)CC2)CC1` (stereo not shown) [Compound 222], the DC50 (Table 1, class symbols) was < 100 nM.

`COc1cc(-c2cn(C)c(=O)c3[nH]ncc23)cc(OC)c1CN1CCN(C(=O)CN2CCC(c3ccc(NC4CCC(=O)NC4=O)cc3)CC2)CC1` (single isomer, unassigned) [Compound 2]: for the setting “Table 1, class symbols”, the DC50 was < 100 nM.

For `COc1cc(-c2cn(C)c(=O)c3[nH]ncc23)cc(OC)c1CC1CCN(CCN2CCC(c3ccc(NC4CCC(=O)NC4=O)cc3)CC2)CC1` (stereo not shown) [Compound 168, 3-[4-[1-[2-[4-[[2,6-dimethoxy-4-(6-methyl-7-oxo-1H-pyrazolo[3,4-c]pyridin-4-yl)phenyl]methyl]-1-piperidyl]ethyl]-4-piperidyl]anilino]piperidine-2,6-dione], the DC50 (Table 1, class symbols) was < 100 nM.

Regarding `COc1cc(-c2cn(C)c(=O)c3[nH]ncc23)cc(OC)c1Cc1ccc(CC(=O)N2CCC(c3ccc(NC4CCC(=O)NC4=O)cc3)CC2)cc1` (stereo not shown) [Compound 207, 3-[4-[1-[2-[4-[[2,6-dimethoxy-4-(6-methyl-7-oxo-1H-pyrazolo[3,4-c]pyridin-4-yl)phenyl]methyl]phenyl]acetyl]-4-piperidyl]anilino]piperidine-2,6-dione], where the note is “Table 1, class symbols”, the DC50 is < 100 nM.

Regarding `COc1cc(-c2cn(C)c(=O)c(C)c2C)cc(Cl)c1CN1CCC(C2CCN(c3ccc(NC4CCC(=O)NC4=O)cc3F)CC2)C(F)(F)C1` (single isomer, unassigned) [Compound 257], the DC50 (Table 2, class symbols) was < 100 nM.

Consider `COc1cc(-c2cn(C)c(=O)c3cnccc23)cc(Cl)c1C(=O)N1CCc2c(CC3CCN(c4ccc(NC5CCC(=O)NC5=O)cc4F)CC3)cccc2C1` (stereo not shown) [Compound 235], for which the DC50 (Table 1, class symbols) was < 100 nM.

On to `COc1cc(-c2cn(C)c(=O)c3cnccc23)cc(Cl)c1CN1CCC(N(C)C(=O)N2CCC(c3ccc(NC4CCC(=O)NC4=O)cc3)CC2)C(F)(F)C1` (stereo not shown) [Compound 125], for which the DC50 (Table 1, class symbols) was < 100 nM.

In the case of `COc1cc(-c2cn(C)c(=O)c(C)c2C)cc(Cl)c1CN1CCc2c(CC3CCN(c4ccc(NC5CCC(=O)NC5=O)cc4F)CC3)cccc2C1` (single isomer, unassigned) [Compound 250], the half-maximal degradation concentration (DC50) (Table 2, class symbols) was < 100 nM.

As for `COc1cc(-c2cn(C)c(=O)c3cnccc23)cc(Cl)c1C(=O)N1CCc2c(CC3CCN(c4ccc(NC5CCC(=O)NC5=O)cc4F)CC3)ccc(F)c2C1` (stereo not shown) [Compound 239, 3-[4-[4-[[2-[2-chloro-6-methoxy-4-(2-methyl-1-oxo-2,7-naphthyridin-4-yl)benzoyl]-8-fluoro-3,4-dihydro-1H-isoquinolin-5-yl]methyl]-1-piperidyl]-3-fluoro-anilino]piperidine-2,6-dione], the 50% degradation concentration (DC50) (Table 1, class symbols) was < 100 nM.

Turning to `COc1cc(-c2cn(C)c(=O)c3[nH]ncc23)cc(Cl)c1CN1CCc2c(cccc2CN2CCC(c3ccc(NC4CCC(=O)NC4=O)cc3)C(F)(F)C2)C1` (stereo not shown) [Compound 100], the DC50 (Table 1, class symbols) was < 100 nM.

For the molecule `COc1cc(-c2cn(C)c(=O)c(C)c2C)cc(Cl)c1CN1CCC(C2CCN(c3ccc(NC4CCC(=O)NC4=O)cc3F)CC2)C(F)(F)C1` (single isomer, unassigned) [Compound 259], where the note is “Table 2, class symbols”, the DC50 was < 100 nM.

Turning to `COc1cc(-c2cn(C)c(=O)c3cnccc23)cc(Cl)c1C(=O)N1CCC(F)(C2CCN(c3ccc(NC4CCC(=O)NC4=O)cc3F)CC2)CC1` (stereo not shown) [Compound 275], the DC50 (Table 2, class symbols) was < 100 nM.

`Cc1c(-c2ccc(CN3CCC(F)(C4CCN(c5ccc(NC6CCC(=O)NC6=O)cc5F)CC4)CC3)c(OC(F)(F)F)c2)cn(C)c(=O)c1C` (stereo not shown) [Compound 244]: the DC50 (Table 1, class symbols) was < 100 nM.

As to `COc1cc(-c2cn(C)c(=O)c3[nH]ncc23)cc(OC)c1CN1CCN(C(=O)CN2CCC(c3ccc(NC4CCC(=O)NC4=O)c(Cl)c3)CC2)CC1` (stereo not shown) [Compound 10], the DC50 (Table 1, class symbols) was < 100 nM.

As for `COc1cc(-c2cn(C)c(=O)c(C)c2C)cnc1CN1CCC(N2CCN(c3ccc(NC4CCC(=O)NC4=O)cc3F)CC2)C(F)(F)C1` (stereo not shown) [Compound 260, 3-[4-[4-[3,3-difluoro-1-[[3-methoxy-5-(1,4,5-trimethyl-6-oxo-3-pyridyl)-2-pyridyl]methyl]-4-piperidyl]piperazin-1-yl]-3-fluoro-anilino]piperidine-2,6-dione], the DC50 (Table 2, class symbols) was < 100 nM.

Take `COc1cc(-c2cn(C)c(=O)c3cnccc23)cc(OC)c1CN1CCc2c(CC3CCN(c4ccc(NC5CCC(=O)NC5=O)cc4C(F)(F)F)CC3)cccc2C1` (stereo not shown) [Compound 237]: the DC50 (Table 1, class symbols) was < 100 nM.

Take `COc1cc(-c2cn(C)c(=O)c(C)c2C)cc(Cl)c1CN1CCC(N2CCN(c3ccc(NC4CCC(=O)NC4=O)cc3F)CC2)C(F)(F)C1` (stereo not shown) [Compound 190]: the DC50 (Table 1, class symbols) was < 100 nM.

For the molecule `Cc1c(-c2ccc(C(=O)N3CCC(N(C)C(=O)N4CCC(c5ccc(NC6CCC(=O)NC6=O)cc5)CC4)CC3)c(OC(F)(F)F)c2)cn(C)c(=O)c1C` (stereo not shown) [Compound 129], for the setting “Table 1, class symbols”, the DC50 was < 100 nM.

For the molecule `COc1cc(-c2cn(C)c(=O)c3ccccc23)cc(F)c1CN1CCC(N(C)C(=O)N2CCC(c3ccc(NC4CCC(=O)NC4=O)cc3)CC2)CC1` (stereo not shown) [Compound 119], where the note is “Table 1, class symbols”, the DC50 is < 100 nM.

Consider `COc1cc(-c2cn(C)c(=O)c3cnccc23)cc(OC)c1CN1CCN(C(=O)CC2CCN(c3ccc(NC4CCC(=O)NC4=O)cc3C(F)(F)F)CC2)CC1` (single isomer, unassigned) [Compound 55], for which the DC50 (Table 1, class symbols) is < 100 nM.

In the case of `COc1cc(-c2cn(C)c(=O)c(C)c2C)cc(OC)c1CN1C2CCC1CN(C(=O)CC1CCN(c3ccc(NC4CCC(=O)NC4=O)cc3F)CC1)C2` (stereo not shown) [Compound 65], where the note is “Table 1, class symbols”, the DC50 was < 100 nM.
